In patent US20160046618A1, “Cyclopropyl Fused Thiazin-2-Amine Compounds as Beta-Secretase Inhibitors and Methods of Use” (AMGEN INC., priority 2014, published 2016):
Like-named read-outs stand apart in the source and are kept apart here.

Legend:
[1] = target: human recombinant BACE1 (Homo sapiens (Human), UniProt P56817); assay: In vitro enzymatic BACE1 FRET assay; assay type: biochemical; details: read-out: IC50 IP (μM) BACE1 enzyme
Procedure, shortened: (§1)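 Ni-NTA-purified recombinant protease incubated with compound; reaction started with 50 nM FRET peptide substrate (fluorophore/quencher flanking the BACE cleavage site) and run 1 h. Stopped with Tris buffer raising pH to neutral; fluorescence read at ex 488/em 590 nm.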

[2] = target: human recombinant BACE2 (Homo sapiens (Human), UniProt Q9Y5Z0); assay: In vitro enzymatic BACE2 FRET assay; assay type: biochemical; details: read-out: IC50 IP (μM) BACE2 enzyme
Procedure, shortened: as §1

[3] = system: Aβ40 in conditioned medium of cells stably expressing Amyloid Precursor Protein (APP); assay: In vitro BACE-1 cell-based assay (Aβ40 sandwich ELISA); details: read-out: IC50 IP (μM) BACE1 cell
Procedure, shortened: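 APP-expressing cells treated 24 h at 37 °C with compound in 10-point dose response (top 100 μM or 10 μM, 0.1% DMSO final). Secreted Aβ40 in conditioned medium quantified by sandwich ELISA (pAb40 capture, biotinylated 6E10 detection, time-resolved europium fluorescence); IC50 from percent inhibition versus concentration.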

[4] = target: Recombinant Cat D (Homo sapiens (Human), UniProt P07339); assay: In vitro enzymatic Cathepsin D (Cat D) FRET assay; assay type: biochemical; details: read-out: IC50 IP (μM) CatD
Procedure, shortened: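 Recombinant Cat D expressed in CHO cells, assayed in 0.05 M citrate pH 3.5 with 5 mM CHAPS and 10% DMSO final. Reaction started with 20 nM FRET peptide substrate, incubated one hour, then stopped by Tris buffer to neutral pH; fluorescence read at ex 500/em 580 nm.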

human recombinant BACE2, sequence (Q9Y5Z0 63-518): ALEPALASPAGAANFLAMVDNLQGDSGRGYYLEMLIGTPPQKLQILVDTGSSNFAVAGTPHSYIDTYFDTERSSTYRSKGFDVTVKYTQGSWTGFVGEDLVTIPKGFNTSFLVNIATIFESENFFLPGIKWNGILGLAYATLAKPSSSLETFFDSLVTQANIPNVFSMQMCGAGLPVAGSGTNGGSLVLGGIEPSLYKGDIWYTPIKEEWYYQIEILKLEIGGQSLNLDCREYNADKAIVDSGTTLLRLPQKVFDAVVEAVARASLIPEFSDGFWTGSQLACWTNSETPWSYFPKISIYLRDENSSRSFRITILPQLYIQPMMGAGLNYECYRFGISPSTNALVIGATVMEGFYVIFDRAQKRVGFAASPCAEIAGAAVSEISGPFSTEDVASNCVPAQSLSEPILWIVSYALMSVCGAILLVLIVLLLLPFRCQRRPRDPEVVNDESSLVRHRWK
Recombinant Cat D, sequence (P07339 65-412): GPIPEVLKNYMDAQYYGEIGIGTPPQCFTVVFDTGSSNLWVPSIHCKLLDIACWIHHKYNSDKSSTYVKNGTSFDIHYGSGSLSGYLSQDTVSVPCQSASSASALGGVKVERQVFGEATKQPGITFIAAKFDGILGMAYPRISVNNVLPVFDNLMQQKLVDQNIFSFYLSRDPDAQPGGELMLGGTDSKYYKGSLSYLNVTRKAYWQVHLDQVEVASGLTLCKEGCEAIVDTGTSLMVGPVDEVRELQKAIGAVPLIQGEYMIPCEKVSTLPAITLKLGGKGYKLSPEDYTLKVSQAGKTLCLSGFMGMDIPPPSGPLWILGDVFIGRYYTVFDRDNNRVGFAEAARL
human recombinant BACE1, sequence (P56817 46-501): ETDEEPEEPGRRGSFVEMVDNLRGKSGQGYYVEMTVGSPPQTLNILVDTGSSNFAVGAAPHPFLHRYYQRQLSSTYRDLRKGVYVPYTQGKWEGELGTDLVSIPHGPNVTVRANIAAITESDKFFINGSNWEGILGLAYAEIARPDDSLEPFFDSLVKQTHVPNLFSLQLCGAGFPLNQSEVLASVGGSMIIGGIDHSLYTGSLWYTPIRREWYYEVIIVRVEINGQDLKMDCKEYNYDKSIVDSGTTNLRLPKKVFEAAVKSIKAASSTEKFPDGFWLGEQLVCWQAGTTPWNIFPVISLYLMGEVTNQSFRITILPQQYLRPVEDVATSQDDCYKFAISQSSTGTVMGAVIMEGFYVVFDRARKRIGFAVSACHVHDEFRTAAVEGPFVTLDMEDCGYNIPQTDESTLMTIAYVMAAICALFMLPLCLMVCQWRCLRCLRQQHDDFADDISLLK

| Structure (SMILES) | IC50 [1] [µM] | IC50 [2] [µM] | IC50 [3] [µM] | IC50 [4] [µM] | IC50 ([1]; BACE1 FRET enzyme assay) [µM] | IC50 ([2]; BACE2 FRET enzyme assay) [µM] | IC50 ([3]; BACE1 cell-based assay) [µM] | IC50 ([4]; Cathepsin D FRET enzyme assay) [µM] |
| --- | --- | --- | --- | --- | --- | --- | --- | --- |
| COc1cnc2c(Nc3cc(F)c(F)c([C@@]4(C)N=C(N)S[C@@]5(CO)C[C@H]54)c3)ncnc2c1 [Example 58, ((1S,5S,6S)-3-amino-5-(2,3-difluoro-5-((7-methoxypyrido[3,2-d]pyrimidin-4-yl)amino)phenyl)-5-methyl-2-thia-4-azabicyclo[4.1.0]hept-3-en-1-yl)methanol] |  |  |  |  | 0.00397 | 0.0308 | 0.00306 | 975 |
| N#Cc1cnc2c(Nc3ccc(F)c([C@@]4(CF)N=C(N)S[C@@]5(CO)C[C@H]54)c3)nccc2c1 [Example 50, 8-((3-((1S,5S,6S)-3-amino-5-(fluoromethyl)-1-(hydroxymethyl)-2-thia-4-azabicyclo[4.1.0]hept-3-en-5-yl)-4-fluorophenyl)amino)-1,7-naphthyridine-3-carbonitrile] |  |  |  |  | 0.00225 | 0.00286 | 0.00505 | > 133 |
| COC[C@]12C[C@H]1[C@@](C)(c1cc(NC(=O)c3ccc(OCC(F)(F)C(F)F)cn3)cc(F)c1F)N=C(N)S2 [Example 732, N-(3-((1S,5S,6S)-3-amino-1-(methoxymethyl)-5-methyl-2-thia-4-azabicyclo[4.1.0]hept-3-en-5-yl)-4,5-difluorophenyl)-5-(2,2,3,3-tetrafluoropropoxy)-2-pyridinecarboxamide] | 0.00339 | 0.737 | 0.034 | 600 |  |  |  |  |
| COc1cnc2c(Nc3cc(F)c(F)c([C@@]4(C)N=C(N)S[C@H]5C[C@H]54)c3)ncnc2c1 [Example 897, N-(3-((1S,5S,6S)-3-amino-5-methyl-2-thia-4-azabicyclo[4.1.0]hept-3-en-5-yl)-4,5-difluorophenyl)-7-methoxypyrido[3,2-d]pyrimidin-4-amine] | 0.035 | 0.184 | 0.038 | 1440 |  |  |  |  |
| COC[C@]12C[C@H]1[C@@](C)(c1cc(NC(=O)c3ncc(OCc4ncco4)cc3C)cc(F)c1F)N=C(N)S2 [Example 646, N-(3-((1S,5S,6S)-3-amino-1-(methoxymethyl)-5-methyl-2-thia-4-azabicyclo[4.1.0]hept-3-en-5-yl)-4,5-difluorophenyl)-3-methyl-5-(1,3-oxazol-2-ylmethoxy)-2-pyridinecarboxamide] | 0.00656 | 0.211 | 0.013 | 865 |  |  |  |  |
| CC(C)(C)NC(=O)[C@]12C[C@H]1[C@@](C)(c1cc(NC(=O)c3ccc(Cl)cn3)ccc1F)N=C(N)S2 [Example 797, (1S,5S,6S)-3-amino-N-tert-butyl-5-(5-(((5-chloro-2-pyridinyl)carbonyl)amino)-2-fluorophenyl)-5-methyl-2-thia-4-azabicyclo[4.1.0]hept-3-ene-1-carboxamide] | 0.00452 | < 0.00203 | 0.0211 | 147 |  |  |  |  |
| COc1ncc(Nc2nccc3nc(OCc4ncco4)cnc23)cc1[C@@]1(C)N=C(N)S[C@@]2(CF)C[C@H]21 [Example 626, N-(5-((1S,5S,6S)-3-amino-1-(fluoromethyl)-5-methyl-2-thia-4-azabicyclo[4.1.0]hept-3-en-5-yl)-6-methoxy-3-pyridinyl)-2-(1,3-oxazol-2-ylmethoxy)pyrido[3,4-b]pyrazin-5-amine] | 0.0164 | 0.2 | 0.00509 | 1080 |  |  |  |  |
| C[C@]1(c2cc(Nc3nccc4nc(OCc5cscn5)cnc34)cc(F)c2F)N=C(N)S[C@@]2(C(F)F)C[C@@H]12 [Example 875, N-(3-((1S,5S,6S)-3-amino-1-(difluoromethyl)-5-methyl-2-thia-4-azabicyclo[4.1.0]hept-3-en-5-yl)-4,5-difluorophenyl)-2-(1,3-thiazol-4-ylmethoxy)pyrido[3,4-b]pyrazin-5-amine] | 0.00296 | 0.0352 | 0.0272 | 295 |  |  |  |  |

Now from value to compound:

| IC50 [1] [µM] | IC50 [2] [µM] | IC50 [3] [µM] | IC50 [4] [µM] | IC50 ([1]; BACE1 FRET enzyme assay) [µM] | IC50 ([2]; BACE2 FRET enzyme assay) [µM] | IC50 ([3]; BACE1 cell-based assay) [µM] | IC50 ([4]; Cathepsin D FRET enzyme assay) [µM] | Structure (SMILES) |
| --- | --- | --- | --- | --- | --- | --- | --- | --- |
| 0.00155 | 0.00839 | 0.00155 | 1090 |  |  |  |  | CN(C)C(=O)[C@]12C[C@H]1[C@@](C)(c1cc(NC(=O)c3cnc(OCC(F)(F)C(F)F)cn3)cc(F)c1F)N=C(N)S2 [Example 922, (1S,5S,6S)-3-amino-5-(2,3-difluoro-5-(((5-(2,2,3,3-tetrafluoropropoxy)-2-pyrazinyl)carbonyl)amino)phenyl)-N,N,5-trimethyl-2-thia-4-azabicyclo[4.1.0]hept-3-ene-1-carboxamide] |
| 0.000803 | 0.128 | 0.0467 | 785 |  |  |  |  | COC[C@]12C[C@H]1[C@@](C)(c1cc(NC(=O)c3cnc(OCc4nnc(C)o4)cn3)cc(F)c1F)N=C(N)S2 [Example 1037, N-(3-((1S,5S,6S)-3-amino-1-(methoxymethyl)-5-methyl-2-thia-4-azabicyclo[4.1.0]hept-3-en-5-yl)-4,5-difluorophenyl)-5-((5-methyl-1,3,4-oxadiazol-2-yl)methoxy)-2-pyrazinecarboxamide] |
| 0.000422 | 0.00329 | 0.00577 | 397 |  |  |  |  | C#CCOc1cnc2c(Nc3ccc(F)c([C@@]4(CF)N=C(N)S[C@@]5(c6cnco6)C[C@@H]45)c3)nccc2n1 [Example 781, N-(3-((1S,5S,6S)-3-amino-5-(fluoromethyl)-1-(1,3-oxazol-5-yl)-2-thia-4-azabicyclo[4.1.0]hept-3-en-5-yl)-4-fluorophenyl)-2-(2-propyn-1-yloxy)pyrido[3,4-b]pyrazin-5-amine] |
| 0.000758 | 0.00951 | 0.000616 | 660 |  |  |  |  | C[C@]1(c2cc(NC(=O)c3cnc(OCC(F)(F)F)cn3)ccc2F)N=C(N)S[C@@]2(C(=O)N3CCCC3)C[C@H]21 [Example 634, N-(3-((1S,5S,6S)-3-amino-5-methyl-1-(1-pyrrolidinylcarbonyl)-2-thia-4-azabicyclo[4.1.0]hept-3-en-5-yl)-4-fluorophenyl)-5-(2,2,2-trifluoroethoxy)-2-pyrazinecarboxamide] |
| 0.0016 | 0.0132 | 0.0037 | 336 |  |  |  |  | C#CCOc1cnc(C(=O)Nc2cnc(F)c([C@@]3(C)N=C(N)S[C@@]4(CF)C[C@H]43)c2)c(C)n1 [Example 603, N-(5-((1S,5S,6S)-3-amino-1-(fluoromethyl)-5-methyl-2-thia-4-azabicyclo[4.1.0]hept-3-en-5-yl)-6-fluoro-3-pyridinyl)-3-methyl-5-(2-propyn-1-yloxy)-2-pyrazinecarboxamide] |
| 0.001 | 0.0987 | 0.017 | 291 |  |  |  |  | COC[C@]12C[C@H]1[C@@](C)(c1cc(NC(=O)c3cnc(OCc4nc(C)no4)cn3)cc(C)c1F)N=C(N)S2 [Example 1044, N-(3-((1S,5S,6S)-3-amino-1-(methoxymethyl)-5-methyl-2-thia-4-azabicyclo[4.1.0]hept-3-en-5-yl)-4-fluoro-5-methylphenyl)-5-((3-methyl-1,2,4-oxadiazol-5-yl)methoxy)-2-pyrazinecarboxamide] |
| 0.00245 | 0.0588 | 0.0841 | 336 |  |  |  |  | C[C@]1(c2cc(Nc3ncc(F)c4cc(OCc5ncco5)cnc34)cc(F)c2F)N=C(N)S[C@@]2(C(F)F)C[C@@H]12 [Example 949, N-(3-((1S,5S,6S)-3-amino-1-(difluoromethyl)-5-methyl-2-thia-4-azabicyclo[4.1.0]hept-3-en-5-yl)-4,5-difluorophenyl)-5-fluoro-3-(1,3-oxazol-2-ylmethoxy)-1,7-naphthyridin-8-amine] |
